Data reported in patent US6020341A, “Enediyne quinone imines and methods of preparation and use thereof” (priority 1997, dated 2000).
Where two headings read alike, the source gives them in different places.

How the values were obtained:
CCRF-CEM/VM-1 cells = experiment: Cytotoxicity, CCRF-CEM/VM-1; type: cell-based, human; conditions: for IC50 / IC90: Homo sapiens, CCRF-CEM; for IC90: read-out: Cytotoxic Concentration IC90
Description: (§1) | cell growth by 50% (IC50) in μM.

[1] = tested on: Human acute lymphoblastic T cells (CCRF-CEM); experiment: Cytotoxicity, CCRF-CEM; type: cell-based; conditions: for IC50 / IC90: Homo sapiens, CCRF-CEM; for IC90: read-out: Cytotoxic Concentration IC90
Description: as §1

[2] = tested on: Chinese hamster lung cells (DC-3F); experiment: Cytotoxicity, DC-3F; type: cell-based; conditions: for IC50 / IC90: Cricetulus griseus, DC3F; for IC90: read-out: Cytotoxic Concentration IC90
Description: as §1

[3] = tested on: Human promyelocytic leukemic cell (HL-60); experiment: Cytotoxicity, HL-60; type: cell-based
Description: as §1

[4] = tested on: Human testicular teratocarcinoma cells (833K); experiment: Cytotoxicity, 833K; type: cell-based
Description: as §1

CCRF-CEM/VBL cells = experiment: Cytotoxicity, CCRF-CEM resistant to vinblastine; type: cell-based, human; conditions: for IC50 / IC90: Homo sapiens, CCRF-CEM; for IC90: read-out: Cytotoxic Concentration IC90
Description: as §1

[5] = tested on: Human breast adenocarcinoma cells (SK-Br-3); experiment: Cytotoxicity, SK-Br-3; type: cell-based
Description: as §1

[6] = tested on: Chinese hamster lung cells resistant to actinomycin D (DC-3F/ADII); experiment: Cytotoxicity, DC-3F/ADII; type: cell-based; conditions: for IC50 / IC90: Cricetulus griseus, DC3F; for IC90: read-out: Cytotoxic Concentration IC90
Description: as §1

MT2 cells = experiment: Cytotoxicity, MT2; type: cell-based; conditions: Table 15, MT2
[7] = Table 3, CCRF-CEM/VM-1, EQI-6 = (1)
[8] = Table 14, vinblastine-resistant (VLB100)
[9] = Table 3, CCRF-CEM/VBL, EQI-6 = (1)
[10] = Table 4, DC-3F/ADII, EQI-6 = (1)

Compound: COc1cc([C@@H]2c3cc4c(cc3[C@@H](O[C@@H]3O[C@@H]5CO[C@@H](c6cccs6)O[C@H]5[C@H](O)[C@H]3O)[C@H]3COC(=O)[C@H]23)OCO4)cc(OC)c1O [VM26]
- resistance of cell line to VM26 (CCRF-CEM/VM-1 cells; CCRF/VM1 versus CCRF/CEM): 50 fold

Compound: COc1cc(NS(C)(=O)=O)ccc1Nc1c2ccccc2nc2ccccc12 [m-AMSA, 4'-(9-acridinylamino)methanesulfon-m-anisidide]
- IC50 ([1]; Table 1, CCRF-CEM, read-out: IC50): 199 nM
- IC50 ([1]; Table 2, CCRF/CEM, read-out: concentration required to inhibit cell growth by 50% (IC50)): 199 nM
- IC50 ([1]; Table 3, CCRF-CEM, read-out: Cytotoxic Concentration IC50): 199 nM
- IC90 ([1]; Table 3, CCRF-CEM): 1540 nM
- IC50 ([1]; Table 14, CCRF-CEM, read-out: Cytotoxic Concentration IC50): 129 nM
- IC90 ([1]; Table 14, CCRF-CEM): 755 nM
- Cytotoxic Concentration IC95 ([1]; Table 3, CCRF-CEM): 3101 nM
- ratio of IC50 to EQI-6 (in parentheses) ([1]; Table 3, CCRF-CEM, EQI-6 = (1)): 398 ×
- ratio of IC90 to EQI-6 (in parentheses) ([1]; Table 3, CCRF-CEM, EQI-6 = (1)): 702 ×
- ratio of IC95 to EQI-6 (in parentheses) ([1]; Table 3, CCRF-CEM, EQI-6 = (1)): 838 ×
- Cytotoxic Concentration IC95 ([1]; Table 14, CCRF-CEM): 1378 nM
- IC50 ([2]; Table 2, DC-3F, read-out: concentration required to inhibit cell growth by 50% (IC50)): 8.8 nM
- IC50 ([2]; Table 4, DC-3F, read-out: Cytotoxic Concentration IC50): 8.8 nM
- IC90 ([2]; Table 4, DC-3F): 53 nM
- IC50 ([2]; Table 13, DC-3F, read-out: Cytotoxic Concentration IC50): 4 nM
- IC90 ([2]; Table 13, DC-3F): 17 nM
- Cytotoxic Concentration IC95 ([2]; Table 4, DC-3F): 97.5 nM
- ratio of IC50 to EQI-6 (in parentheses) ([2]; Table 4, DC-3F, EQI-6 = (1)): 4.9 ×
- ratio of IC90 to EQI-6 (in parentheses) ([2]; Table 4, DC-3F, EQI-6 = (1)): 4.8 ×
- ratio of IC95 to EQI-6 (in parentheses) ([2]; Table 4, DC-3F, EQI-6 = (1)): 4.9 ×
- Cytotoxic Concentration IC95 ([2]; Table 13, DC-3F): 28 nM
- IC50 ([3]; Homo sapiens, HL-60, Table 1, HL-60, read-out: IC50): 38.8 nM
- IC50 ([3]; Homo sapiens, HL-60, Table 2, HL60, read-out: concentration required to inhibit cell growth by 50% (IC50)): 39 nM
- IC50 ([3]; Homo sapiens, HL-60, Table 3, HL-60, read-out: Cytotoxic Concentration IC50): 38.8 nM
- IC90 ([3]; Homo sapiens, HL-60, Table 3, HL-60, read-out: Cytotoxic Concentration IC90): 176 nM
- Cytotoxic Concentration IC95 ([3]; Table 3, HL-60): 294 nM
- ratio of IC50 to EQI-6 (in parentheses) ([3]; Table 3, HL-60, EQI-6 = (1)): 66.9 ×
- ratio of IC90 to EQI-6 (in parentheses) ([3]; Table 3, HL-60, EQI-6 = (1)): 67.7 ×
- ratio of IC95 to EQI-6 (in parentheses) ([3]; Table 3, HL-60, EQI-6 = (1)): 66.8 ×
- IC50 (CCRF-CEM/VM-1 cells; Table 2, CCRF/VM-1 (MDR/TopoII), read-out: concentration required to inhibit cell growth by 50% (IC50)): 1710 nM
- IC50 (CCRF-CEM/VM-1 cells; Table 3, CCRF-CEM/VM-1, read-out: Cytotoxic Concentration IC50): 1710 nM
- IC90 (CCRF-CEM/VM-1 cells; Table 3, CCRF-CEM/VM-1): 3570 nM
- IC50 (CCRF-CEM/VM-1 cells; Table 14, CCRF-CEM/VM-1, read-out: Cytotoxic Concentration IC50): 4050 nM
- IC90 (CCRF-CEM/VM-1 cells; Table 14, CCRF-CEM/VM-1): 11000 nM
- Cytotoxic Concentration IC95 (CCRF-CEM/VM-1 cells; Table 3, CCRF-CEM/VM-1): 4586 nM
- ratio of IC50 to EQI-6 (in parentheses) (CCRF-CEM/VM-1 cells; [7]): 902.1 ×
- ratio of IC90 to EQI-6 (in parentheses) (CCRF-CEM/VM-1 cells; [7]): 401.3 ×
- ratio of IC95 to EQI-6 (in parentheses) (CCRF-CEM/VM-1 cells; [7]): 303 ×
- Cytotoxic Concentration IC95 (CCRF-CEM/VM-1 cells; Table 14, CCRF-CEM/VM-1): 15391 nM
- IC50 ([4]; Homo sapiens, 833K, Table 2, 833K (Testicular), read-out: concentration required to inhibit cell growth by 50% (IC50)): 43 nM
- IC50 ([4]; Homo sapiens, 833K, Table 4, 833k, read-out: Cytotoxic Concentration IC50): 43 nM
- IC90 ([4]; Homo sapiens, 833K, Table 4, 833k, read-out: Cytotoxic Concentration IC90): 189 nM
- Cytotoxic Concentration IC95 ([4]; Table 4, 833k): 311 nM
- ratio of IC50 to EQI-6 (in parentheses) ([4]; Table 4, 833k, EQI-6 = (1)): 6.14 ×
- ratio of IC90 to EQI-6 (in parentheses) ([4]; Table 4, 833k, EQI-6 = (1)): 7.56 ×
- ratio of IC95 to EQI-6 (in parentheses) ([4]; Table 4, 833k, EQI-6 = (1)): 7.97 ×
- IC50 (CCRF-CEM/VBL cells; Table 2, CCRF/VBL (MDR/pg-p), read-out: concentration required to inhibit cell growth by 50% (IC50)): 565 nM
- IC50 (CCRF-CEM/VBL cells; Table 3, CCRF-CEM/VBL, read-out: Cytotoxic Concentration IC50): 565 nM
- IC90 (CCRF-CEM/VBL cells; Table 3, CCRF-CEM/VBL): 2460 nM
- IC50 (CCRF-CEM/VBL cells; Table 14, vinblastine-resistant (VLB100), read-out: Cytotoxic Concentration IC50): 964 nM
- IC90 (CCRF-CEM/VBL cells; [8]): 7230 nM
- Cytotoxic Concentration IC95 (CCRF-CEM/VBL cells; Table 3, CCRF-CEM/VBL): 4045 nM
- ratio of IC50 to EQI-6 (in parentheses) (CCRF-CEM/VBL cells; [9]): 298.9 ×
- ratio of IC90 to EQI-6 (in parentheses) (CCRF-CEM/VBL cells; [9]): 396 ×
- ratio of IC95 to EQI-6 (in parentheses) (CCRF-CEM/VBL cells; [9]): 434.9 ×
- Cytotoxic Concentration IC95 (CCRF-CEM/VBL cells; [8]): 14353 nM
- IC50 ([5]; Homo sapiens, SK-BR-3, Table 2, SK-Br-3 (Breast), read-out: concentration required to inhibit cell growth by 50% (IC50)): 551 nM
- IC50 ([5]; Homo sapiens, SK-BR-3, Table 4, SK-Br-3, read-out: Cytotoxic Concentration IC50): 551 nM
- IC90 ([5]; Homo sapiens, SK-BR-3, Table 4, SK-Br-3, read-out: Cytotoxic Concentration IC90): 84100 nM
- Cytotoxic Concentration IC95 ([5]; Table 4, SK-Br-3): 464700 nM
- ratio of IC50 to EQI-6 (in parentheses) ([5]; Table 4, SK-Br-3, EQI-6 = (1)): 16.2 ×
- ratio of IC90 to EQI-6 (in parentheses) ([5]; Table 4, SK-Br-3, EQI-6 = (1)): 449.7 ×
- ratio of IC95 to EQI-6 (in parentheses) ([5]; Table 4, SK-Br-3, EQI-6 = (1)): 139.7 ×
- IC50 ([6]; Table 2, DC-3F/ADII (MDR/Actinomycin D), read-out: concentration required to inhibit cell growth by 50% (IC50)): 71 nM
- IC50 ([6]; Table 4, DC-3F/ADII, read-out: Cytotoxic Concentration IC50): 70.7 nM
- IC90 ([6]; Table 4, DC-3F/ADII): 825 nM
- IC50 ([6]; Table 13, DC-3F/ADII, read-out: Cytotoxic Concentration IC50): 33 nM
- IC90 ([6]; Table 13, DC-3F/ADII): 180 nM
- Cytotoxic Concentration IC95 ([6]; Table 4, DC-3F/ADII): 1902 nM
- ratio of IC50 to EQI-6 (in parentheses) [6, 10]: 12 ×
- ratio of IC90 to EQI-6 (in parentheses) [6, 10]: 53.6 ×
- ratio of IC95 to EQI-6 (in parentheses) [6, 10]: 88.9 ×
- Cytotoxic Concentration IC95 ([6]; Table 13, DC-3F/ADII): 321 nM
- IC50 (MT2 cells; Homo sapiens, read-out: Cytotoxic Concentration IC50): 19 nM
- IC90 (MT2 cells; Homo sapiens, read-out: Cytotoxic Concentration IC90): 38 nM
- Cytotoxic Concentration IC95 (MT2 cells): 48 nM

Compound: CC[C@]1(O)C[C@@H]2CN(CCc3c([nH]c4ccccc34)[C@@](C(=O)OC)(c3cc4c(cc3OC)N(C)[C@H]3[C@@](O)(C(=O)OC)[C@H](OC(C)=O)[C@]5(CC)C=CCN6CC[C@]43[C@@H]65)C2)C1 [vinblastin]
- resistance of cell line to vinblastin (CCRF-CEM/VBL cells; CCRF/VBL100 versus CCRF/CEM): 59 fold

Compound: actinomycin D
- resistance of cell line to actinomycin D ([6]; DC3F/ADII versus DC3F): 32 fold
